Reference: patent publication US20070142462A1, “Method of Treating Cancer” (The University of Utah, priority 2000, published 2007)

Assays:
M1619 cells [1] = assay: Apoptosis by TdT fluorescein end-labeling (FragEL); format: cell-based, human; details: 3000 U/ml catalase for 24 hours; vs DNase-treated positive control
Experimental: (§1) Measurement of Cytotoxicity and Apoptosis. To assess for cytotoxicity, near confluent cells cultured in 24 well plates were exposed to antioxidants or withdrawn from serum for 24 hours. Medium was removed, and replaced with Dulbecco=s phosphate buffered saline (DPBS) containing 0.1% trypan blue. […] To assess for apoptosis, cells grown on glass slides were treated with antioxidants for 24 hours. Apoptosis was studied by terminal deoxynucleotidyl transferase (TdT) dependent 3′BOH fluorescein end-labeling of DNA fragments, using a Fluorescein-FragEL™ DNA fragmentation detection kit (Oncogene Research Products, Cambridge, Mass.). DNase-treated fixed cells were used as a positive control.
Apoptosis was studied by terminal deoxynucleotidyl transferase (TdT) dependent 3′BOH fluorescein end-labeling of DNA fragments, using a Fluorescein-FragE™ DNA fragmentation detection kit (Oncogene Research Products).

[2] = system: LNCaP.FGC prostate adenocarcinoma cells; assay: MTT proliferation assay, LNCaP.FGC prostate adenocarcinoma; format: cell-based, human; details: Catalase 3000 U/ml; 10% FBS; 48 hours; mean±SE vs control
Experimental: (§2) Measurement of Proliferation in Cell Cultures. […] This assay empirically distinguishes between dead and living cells.
(§3) Cell Culture Treatments. The effect of antioxidant treatments on proliferation of malignant cell lines was studied in cultures stimulated with 10% FBS. Cell numbers were quantitated by the MTT assay 24-72 hours later. In some experiments, antioxidants were added immediately after cells were plated. In other experiments, cells were plated and allowed to grow for 24 hours before fresh media with antioxidants was added, and cell numbers were studied by the MTT assay 48 hours later.
(§4) Cells stimulated with 10% FBS were plated at a density of 50,000 cells per well. DMSO and antioxidants were added to cell wells at the indicated concentrations. […] Each value represents a mean of at least 4 experiments.

NF-κB = assay: EMSA of constitutive nuclear NF-κB DNA binding, M1619; format: cell-based, human; details: 24 hours, catalase 3,000 U/ml, NAC 20 mM, Ebselen 25 μM, dicumarol 250 μM
Source text: Electrophoretic Mobility Shift Assays (EMSAs). […] J. Respir.

[3] = system: Adeno-squamous lung carcinoma NCI-H596 cells; assay: MTT proliferation assay, NCI-H596 lung carcinoma; format: cell-based, human; details: Catalase 3000 U/ml; 10% FBS; 48 hours; mean±SE vs control
Experimental: as §2, §3, §4

M1619 cells [4] = assay: Cytotoxicity by trypan blue; format: cell-based; details: catalase treatment; 24 hours
Experimental: as §1

Melanoma M1585 cells = assay: MTT proliferation assay, M1585 melanoma; format: cell-based, human; details: Catalase 3000 U/ml; 10% FBS; 48 hours; mean±SE vs control
Experimental: as §2, §3, §4

p65 component of NF-κB = assay: Immunohistochemical localization of p65 in M1619 cells; format: cell-based, human; details: 24 hours, catalase 3,000 U/ml, apocynin 150 μg/ml, dicumarol 250 μM
Experimental: The effect of antioxidants on nuclear activation of NF-κB was studied by incubating near confluent (70%) cell cultures with antioxidant treatments for 1-48 hours. Nuclear protein was harvested, and EMSAs were performed using DNA consensus binding sequences, or nuclear translocation of the p65 component of NF-κB was studied by immunoperoxidase staining, as outlined below.
Immunohistochemical Localization of NF-κB. Cells grown on sterile coverslips and treated with catalase 3,000 U/ml, apocynin 150 μg/ml, or DPBS or DMSO vehicles for 24 h were fixed for 20 min on ice with 4% paraformaldehyde in DPBS with protease inhibitors, PI [Sigma protease inhibitor cocktail, 10 μl/ml, containing 4-(2-aminoethyl)benzensulfonyl fluoride (AEBSF), pepstatin A, trans-epoxysuccinyl-L-leucylamindo-(guanidino)butane (E-64), bestatin, leupeptin and aprotinin]. Cells were permeabilized by treating for 2 min with 0.1% NP-40 in DPBS/PI, washed once with cold DPBS and fixed as before for 10 min. Coverslips were incubated in 3% hydrogen peroxide for 30 min to suppress any remaining peroxidase, and washed three times in cold DPBS. The permeabilized and fixed cells were blocked for 2 hours with 2% BSA in DPBS on ice and incubated overnight at 4° C. with 1 μg/ml of anti-p65 antibody (Santa Cruz) diluted in 0.1% BSA/DPBS. Unbound anti-p65 was washed away with 2% BSA/DPBS and bound antibody was stained by incubation with biotinylated goat anti-rabbit immunoglobulin diluted 1:50 in 0.1% BSA/DPBS for 45 min on ice. Excess secondary antibody was washed away by 3 washes with 2% BSA/DPBS on ice. After washing, the cells were incubated with a streptavidin-biotin-peroxidase complex at room temperature for 1 hr, washed again, and incubated in 0.03% wt/vol 3-3′diaminobenzidine with 0.003% vol/vol hydrogen peroxide until a brown reaction product could be seen. Cells were then counterstained with eosin and mounted on glass slides before viewing under light microscopy. […]

[5] = system: breast carcinoma MDA-MB-453 cells; assay: MTT proliferation assay, MDA-MB-453 breast carcinoma; format: cell-based, human; details: Catalase 3000 U/ml; 10% FBS; 72 hours; mean±SE vs control
Experimental: as §2, §3, §4

For Catalase, the Induction of apoptosis (M1619 cells [1]) was “did not induce apoptosis”, the “Percent Growth Inhibition” value [2] was 43 ± 7 and the “constitutive NF-κB DNA binding activity in nuclear protein” value (NF-κB) was “substantially reduced”. The “Percent Growth Inhibition” value [3] was 69 ± 4, the “trypan blue dye exclusion” value (M1619 cells [4]) was “significantly increased” and the “Percent Growth Inhibition” value (Melanoma M1585 cells) was 80 ± 1. The “anti-p65 staining in nuclei (nuclear translocation of NF-κB)” value (p65 component of NF-κB) was “little staining in nuclei” and the “Percent Growth Inhibition” value [5] was 49 ± 2.
